Read-outs that look alike come from different tables or passages of the source.
Assays:
[1] = test system: Pyricularia oryzae; format: cell-based; details: 5 minutes
[2] = test system: Erwinia carotovora var. cartovora; experiment: Basic test: cutting knife disinfection, blackleg pathogens; format: cell-based; details: knife immersed 5 seconds
[3] = test system: Clavibacter michiganense subsp. Nebraskense (ATCC27822); experiment: Basic test: cutting knife disinfection, ring rot pathogens; format: cell-based; details: knife immersed 5 seconds
[4] = test system: bacteria pathogens and filamentous fungi pathogens; format: cell-based
[5] = test system: Erwinia carotovora var. cartovora; experiment: Test using potatoes: blackleg pathogenesis after cutting with disinfected knife; format: in vivo, potatoes Norin No. 1
[6] = test system: Ralstonia solanacearum; format: cell-based; details: 5 minutes
[7] = test system: Burkholderia plantarii; experiment: Material disinfection test; format: cell-based; details: 5 minutes
[8] = test system: Burkholderia glumae; experiment: Material disinfection test; format: cell-based; details: 5 minutes

With O=C1C=CC(=O)O1 [Maleic anhydride] the “average value of viable filamentous fungi counts on all materials examined” value ([1]; 2 times solution sprayed) was 0 cfu/ml, the “average value of viable filamentous fungi counts on all materials examined” value ([1]; 5 times solution sprayed) was 0 cfu/ml and the “average value of viable filamentous fungi counts on all materials examined” value ([1]; 25 times solution sprayed) was 0 cfu/ml. For the same compound, the “average value of viable filamentous fungi counts on all materials examined” value ([1]; 50 times solution sprayed) was 0 cfu/ml, the “average value of viable filamentous fungi counts on all materials examined” value ([1]; 100 times solution sprayed) was 0 cfu/ml and the “average value of viable filamentous fungi counts on all materials examined” value ([1]; 200 times solution sprayed) was 32 cfu/ml. For the same compound, the “average value of viable filamentous fungi counts on all materials examined” value ([1]; 500 times solution sprayed) was 1.5 × 10^2 cfu/ml, the “sterilization of blackleg pathogens (in words)” value ([2]; 2 to 10 times solutions) was “complete sterilization” and the “sterilization effect on blackleg pathogens (in words)” value ([2]; 25 to 50 times solutions) was “high sterilization effect”. The “sterilization of ring rot pathogens (in words)” value ([3]; 2 to 10 times solutions) was “complete sterilization”, the “sterilization effect on ring rot pathogens (in words)” value ([3]; 25 to 50 times solutions) was “high sterilization effect” and the “sterilization in material disinfection test (in words)” value [4] was “complete sterilization”. For the same compound, the “sterilization in test using potatoes (in words)” value ([5]; 5 to 10 times solution) was “complete sterilization”, the “sterilization effect in test using potatoes (in words)” value ([5]; 50 times solution) was “high sterilization effect” and the “Average value of viable bacteria counts on all materials examined” value (from here on “Average value of viable bacteria counts”) ([6]; 2 times solution sprayed) was 0 cfu/ml. For the same compound, the “Average value of viable bacteria counts” value ([6]; 5 times solution sprayed) was 0 cfu/ml, the “Average value of viable bacteria counts” value ([6]; 25 times solution sprayed) was 0 cfu/ml and the “Average value of viable bacteria counts” value ([6]; 50 times solution sprayed) was 0 cfu/ml. The “Average value of viable bacteria counts” value ([6]; 100 times solution sprayed) was 0 cfu/ml, the “Average value of viable bacteria counts” value ([6]; 200 times solution sprayed) was 4 cfu/ml and the “Average value of viable bacteria counts” value ([6]; 500 times solution sprayed) was 58 cfu/ml. For the same compound, the “Average value of viable bacteria counts” value ([7]; 2 times solution sprayed) was 0 cfu/ml, the “Average value of viable bacteria counts” value ([7]; 5 times solution sprayed) was 0 cfu/ml and the “Average value of viable bacteria counts” value ([7]; 25 times solution sprayed) was 0 cfu/ml. For the same compound, the “Average value of viable bacteria counts” value ([7]; 50 times solution sprayed) was 0 cfu/ml, the “Average value of viable bacteria counts” value ([7]; 100 times solution sprayed) was 0 cfu/ml and the “Average value of viable bacteria counts” value ([7]; 200 times solution sprayed) was 7 cfu/ml. For the same compound, the “Average value of viable bacteria counts” value ([7]; 500 times solution sprayed) was 1.0 × 10^2 cfu/ml, the “Average value of viable bacteria counts” value ([8]; 2 times solution sprayed) was 0 cfu/ml and the “Average value of viable bacteria counts” value ([8]; 5 times solution sprayed) was 0 cfu/ml. The “Average value of viable bacteria counts” value ([8]; 25 times solution sprayed) was 0 cfu/ml, the “Average value of viable bacteria counts” value ([8]; 50 times solution sprayed) was 0 cfu/ml and the “Average value of viable bacteria counts” value ([8]; 100 times solution sprayed) was 0 cfu/ml. The “Average value of viable bacteria counts” value ([8]; 200 times solution sprayed) was 69 cfu/ml and the “Average value of viable bacteria counts” value ([8]; 500 times solution sprayed) was 2.0 × 10^2 cfu/ml.

From patent publication US20100048696A1, “AGRICULTURAL DISEASE CONTROL AGENT” (Idemitsu Kosan Co., Ltd., priority 2007, published 2010)
